Laboratory results published in US20250289789A1, “REVERSIBLE LYSINE COVALENT MODIFIERS OF CDK2 AND USES THEREOF” (Terremoto Biosciences, Inc., priority 2023, published 2025).

Tests used:
Assay type in all cases: cell-based
[1] = target: T1, CDK2-NanoLuc fusion with CCNE1 in 293T or 293 cells (Homo sapiens, UniProt P24941); test: NanoBRET Target Engagement (TE) Intracellular Kinase Assay, CDK2/CCNE1; conditions: NanoBRET TE intracellular kinase assay, 2-hour incubation, read-out: NanoBRET-CDK2/E1 IC50
T1 construct: host or cells: 293T (ATCC CRL-3216) or 293 (ATCC CRL-1573)

[2] = target: T2, CDK1-NanoLuc fusion with CCNB1 in 293T or 293 cells (Homo sapiens, UniProt P06493); test: NanoBRET Target Engagement (TE) Intracellular Kinase Assay, CDK1/CCNB1; conditions: NanoBRET TE intracellular kinase assay, 2-hour incubation, read-out: NanoBRET-CDK1/B1 IC50
T2 construct: host or cells: 293T (ATCC CRL-3216) or 293 (ATCC CRL-1573)
T2 sequence (P06493 whole entry, the tested form may be a part): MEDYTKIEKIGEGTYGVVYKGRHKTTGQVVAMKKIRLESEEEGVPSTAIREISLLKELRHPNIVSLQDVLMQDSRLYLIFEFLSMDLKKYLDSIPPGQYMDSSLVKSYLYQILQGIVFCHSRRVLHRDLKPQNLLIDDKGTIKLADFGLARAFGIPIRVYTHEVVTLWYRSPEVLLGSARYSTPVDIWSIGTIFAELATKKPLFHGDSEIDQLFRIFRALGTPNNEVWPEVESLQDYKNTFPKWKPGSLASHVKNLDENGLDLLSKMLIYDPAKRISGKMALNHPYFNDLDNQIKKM
T2 sequence (P14635 whole entry partner, the tested form may be a part): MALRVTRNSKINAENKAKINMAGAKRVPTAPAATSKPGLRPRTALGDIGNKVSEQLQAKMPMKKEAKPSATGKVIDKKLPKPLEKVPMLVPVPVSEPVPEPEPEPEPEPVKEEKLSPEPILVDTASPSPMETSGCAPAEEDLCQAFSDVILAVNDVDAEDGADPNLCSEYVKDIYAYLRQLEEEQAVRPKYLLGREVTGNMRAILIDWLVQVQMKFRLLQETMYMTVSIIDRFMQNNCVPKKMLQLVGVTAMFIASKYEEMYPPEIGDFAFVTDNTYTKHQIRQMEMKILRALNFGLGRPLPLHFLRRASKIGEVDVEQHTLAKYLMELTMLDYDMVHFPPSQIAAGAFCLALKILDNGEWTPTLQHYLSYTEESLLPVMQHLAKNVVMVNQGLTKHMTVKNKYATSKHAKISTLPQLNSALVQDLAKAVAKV
Protocol: Inhibitory effects of compounds were measured in NanoBRET TE Intracellular Kinase Assay. 293T (ATCC; CRL-3216) or 293 (ATCC; CRL-1573) cell lines were maintained in 90% DMEM and 10% fetal bovine serum at 37° C., 5% CO2, and 95% relative humidity. Cells were trypsinized and resuspended in assay media (99% Opti-MEM I Reduced Serum Medium, no phenol red, and 1% fetal bovine serum). Cells were co-transfected with 1 μg/mL of CDK-NanoLuc Fusion Vector (Promega; NV2701 for CDK1, NV2781 for CDK2, NV2811 for CDK4, NV2841 for CDK6) and 1 μg/mL of the corresponding Cyclin Expression Vector (Promega; NV2601 for CCNB1, NV2641 for CCNE1, NV2621 for CCND1, NV2631 for CCND3) using FuGENE HD Transfection Reagent (Promega; E2311). 40 uL/well of cells with transfection mixture were seeded in 384-well plates at 1.25×10^5 to 2×10^5 cells/mL and incubated for 24 hours at 37° C., 5% CO2, and 95% relative humidity. On the next day, 100 nL of 100 μM NanoBRET Tracer K-10 (Promega; N2640) and 40 nL of 1000× test compounds prepared in DMSO were added to the cells in each well of 384-well plates for a 2-hour incubation at 37° C., 5% CO2, and 95% relative humidity. 20 uL/well of 3× Intracellular TE Nano-Glo Substrate/Inhibitor (Promega; N2162) were added to 384-well plates and incubated for 3 minutes at room temperature. NanoBRET signals (donor emission wavelength at 450 nm, acceptor emission wavelength at 610 nm) were measured using Envision plate reader (PerkinElmer). NanoBRET ratio was calculated by: BRET Ratio=raw signal for acceptor/raw signal for donor. Dose response curve normalized to DMSO control was plotted using four-parameter logistic model for IC50 calculation.

[3] = target: T3, CDK4-NanoLuc fusion with CCND1 in 293T or 293 cells (Homo sapiens, UniProt P11802); test: NanoBRET Target Engagement (TE) Intracellular Kinase Assay, CDK4/CCND1; conditions: NanoBRET TE intracellular kinase assay, 2-hour incubation, read-out: NanoBRET-CDK4/D1 IC50
T3 construct: host or cells: 293T (ATCC CRL-3216) or 293 (ATCC CRL-1573)
T3 sequence (P11802 whole entry, the tested form may be a part): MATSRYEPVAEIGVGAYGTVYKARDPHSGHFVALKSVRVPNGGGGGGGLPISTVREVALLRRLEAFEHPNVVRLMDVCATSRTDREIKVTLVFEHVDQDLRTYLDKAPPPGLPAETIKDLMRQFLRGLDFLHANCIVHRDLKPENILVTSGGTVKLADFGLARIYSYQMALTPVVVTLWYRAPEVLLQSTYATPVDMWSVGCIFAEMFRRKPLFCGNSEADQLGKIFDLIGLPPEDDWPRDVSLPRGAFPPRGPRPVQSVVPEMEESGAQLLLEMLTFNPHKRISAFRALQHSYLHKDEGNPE
T3 sequence (P24385 whole entry partner, the tested form may be a part): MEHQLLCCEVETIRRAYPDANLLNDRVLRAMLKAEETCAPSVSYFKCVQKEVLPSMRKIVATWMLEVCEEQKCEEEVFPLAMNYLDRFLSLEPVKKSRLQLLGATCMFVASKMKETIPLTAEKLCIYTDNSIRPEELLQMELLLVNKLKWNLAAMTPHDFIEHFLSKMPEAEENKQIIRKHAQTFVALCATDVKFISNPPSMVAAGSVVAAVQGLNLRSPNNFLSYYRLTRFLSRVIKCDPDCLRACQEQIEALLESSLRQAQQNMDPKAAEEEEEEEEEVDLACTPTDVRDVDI

[4] = tested on: Phospho-Rb Ser807/811 in OVCAR3 cells; test: OVCAR3 Phospho-Rb Ser807/811 HTRF assay; conditions: Homo sapiens, OVCAR-3, 1 h, OVCAR3 cells, Phospho-Rb Ser807/811 HTRF, 1 hour incubation; read-out: pRb-OVCAR3 IC50
Protocol: Cells were trypsinized and resuspended in 1 mM hydroxyurea (Sigma; H8627), 90% RPMI and 10% fetal bovine serum. […] Dose response curve normalized to DMSO control was plotted using four-parameter logistic model for IC50 calculation.

Compound	IC50 [1] [nM]	IC50 [2] [nM]	IC50 [3] [nM]	IC50 [4] [nM]
CC(C)NC(=O)O[C@@H]1CC[C@H](c2cc(NC(=O)c3cc(C=O)c4[nH]ncc4c3)n[nH]2)C1 [Compound 40, (1R,3S)-3-(3-(7-formyl-1H-indazole-5-carboxamido)-1H-pyrazol-5-yl)cyclopentyl isopropylcarbamate]	24.4	275	1460	796
CC(C)NC(=O)O[C@@H]1CC[C@H](c2cc(NC(=O)c3cc(-c4cccc(NS(C)(=O)=O)c4C=O)nn3C)n[nH]2)C1 [Compound 41, (1R,3S)-3-{5-[5-(2-formyl-3-methanesulfonamidophenyl)-2-methylpyrazole-3-amido]-2H-pyrazol-3-yl}cyclopentyl N-isopropylcarbamate; trifluoroacetic acid]	5.32	20.5	3060	272
CC(C)NC(=O)O[C@@H]1CC[C@H](c2cc(NC(=O)c3cc(-c4cc(F)cc(O)c4C=O)nn3C)n[nH]2)C1 [Compound 42, (1R,3S)-3-{5-[5-(5-fluoro-2-formyl-3-hydroxyphenyl)-2-methylpyrazole-3-amido]-2H-pyrazol-3-yl}cyclopentyl N-isopropylcarbamate; trifluoroacetic acid]	5.5	10.6	2680	176
CC(C)NC(=O)O[C@@H]1CC[C@H](c2cc(NC(=O)COc3ccc(F)c(O)c3C=O)n[nH]2)C1 [Compound 43, (1R,3S)-3-{5-[2-(4-fluoro-2-formyl-3-hydroxyphenoxy)acetamido]-2H-pyrazol-3-yl}cyclopentyl N-isopropylcarbamate; trifluoroacetic acid]	27.2	51.2	> 10000	212
CC(C)NC(=O)O[C@@H]1CC[C@H](c2cc(NC(=O)c3cc(-c4cnccc4C=O)nn3C)n[nH]2)C1 [Compound 44, (1R,3S)-3-(3-(3-(4-formylpyridin-3-yl)-1-methyl-1H-pyrazole-5-carboxamido)-1H-pyrazol-5-yl)cyclopentyl isopropylcarbamate; trifluoroacetic acid]	6.37	168	1550	485
CC(C)NC(=O)O[C@@H]1CC[C@H](c2cc(NC(=O)COc3cc(C#N)cc(O)c3C=O)n[nH]2)C1 [Compound 47, 1R,3S)-3-(3-(2-(5-cyano-2-formyl-3-hydroxyphenoxy)acetamido)-1H-pyrazol-5-yl)cyclopentyl isopropylcarbamate]	98.9	224	9430	1170
COc1cc(O)c(C=O)c(-c2cc(C(=O)Nc3cc([C@H]4CC[C@@H](OC(=O)NC(C)C)C4)[nH]n3)n(C)n2)c1 [Compound 48, (1R,3S)-3-{5-[5-(2-formyl-3-hydroxy-5-methoxyphenyl)-2-methylpyrazole-3-amido]-2H-pyrazol-3-yl}cyclopentyl N-isopropylcarbamate; trifluoroacetic acid]	2.28	10.8	848	125
Cc1nc(-c2cccc(O)c2C=O)sc1C(=O)Nc1cc([C@H]2CC[C@@H](OC(=O)NC(C)C)C2)[nH]n1 [Compound 53, (1R,3S)-3-(3-(2-(2-formyl-3-hydroxyphenyl)-4-methylthiazole-5-carboxamido)-1H-pyrazol-5-yl)cyclopentyl isopropylcarbamate]	9.39	21.7	3660	361
CC(C)NC(=O)O[C@@H]1CC[C@H](c2cc(NC(=O)c3cn(-c4cccc(O)c4C=O)nc3C(F)F)n[nH]2)C1 [Compound 54, (1R,3S)-3-(3-(3-(difluoromethyl)-1-(2-formyl-3-hydroxyphenyl)-1H-pyrazole-4-carboxamido)-1H-pyrazol-5-yl)cyclopentyl isopropylcarbamate]	23.4	175	> 10000	1690
CC(C)NC(=O)O[C@@H]1CC[C@H](c2cc(NC(=O)c3cnc(-c4cccc(O)c4C=O)o3)n[nH]2)C1 [Compound 55, (1R,3S)-3-{5-[2-(2-formyl-3-hydroxyphenyl)-1,3-oxazole-5-amido]-2H-pyrazol-3-yl}cyclopentyl N-isopropylcarbamat]	21.9	69.9	> 10000	1430
Cc1ccc(OCC(=O)Nc2cc([C@H]3CC[C@@H](OC(=O)NC(C)C)C3)[nH]n2)c(C=O)c1O [Compound 56, (1R,3S)-3-(3-(2-(2-formyl-3-hydroxy-4-methylphenoxy)acetamido)-1H-pyrazol-5-yl)cyclopentyl isopropylcarbamate]	1.32	4.83	> 10000	75.8
Cc1cc(O)c(C=O)c(OCC(=O)Nc2cc([C@H]3CC[C@@H](OC(=O)NC(C)C)C3)[nH]n2)c1 [Compound 57, (1R,3S)-3-(3-(2-(2-formyl-3-hydroxy-5-methylphenoxy)acetamido)-1H-pyrazol-5-yl)cyclopentyl isopropylcarbamate]	3.06	21.9	> 9580	110
CC(C)NC(=O)O[C@@H]1CC[C@H](c2cc(NC(=O)c3cc(-c4cccc(O)c4C=O)n(C)n3)n[nH]2)C1 [Compound 59, (1R,3S)-3-{5-[5-(2-formyl-3-hydroxyphenyl)-1-methylpyrazole-3-amido]-2H-pyrazol-3-yl}cyclopentyl N-isopropylcarbamate]	32.1	362	> 10000	2300
CCn1nc(-c2cccc(O)c2C=O)cc1C(=O)Nc1cc([C@H]2CC[C@@H](OC(=O)NC(C)C)C2)[nH]n1 [Compound 60, (1R,3S)-3-{5-[2-ethyl-5-(2-formyl-3-hydroxyphenyl)pyrazole-3-amido]-2H-pyrazol-3-yl}cyclopentyl N-isopropylcarbamate; trifluoroacetic acid]	6.5	15.1	3630	230
CC(C)NC(=O)O[C@@H]1CC[C@H](c2cc(NC(=O)c3cc(-c4cccc(O)c4C=O)nn3C3CC3)n[nH]2)C1 [Compound 61, (1R,3S)-3-(3-(1-cyclopropyl-3-(2-formyl-3-hydroxyphenyl)-1H-pyrazole-5-carboxamido)-1H-pyrazol-5-yl)cyclopentyl isopropylcarbamate]	6.27	36.1	2890	477
CC(C)NC(=O)O[C@@H]1CC[C@H](c2cc(NC(=O)C3Cc4ccc(O)c(C=O)c4O3)n[nH]2)C1 (stereo partly drawn) [Compound 62, (1R,3S)-3-(3-(7-formyl-6-hydroxy-2,3-dihydrobenzo-furan-2-carboxamido)-1H-pyrazol-5-yl)cyclopentyl isopropylcarbamate]	34.4	270	7230	1870
CC(C)NC(=O)O[C@@H]1CC[C@H](c2cc(NC(=O)OCc3cccc(O)c3C=O)n[nH]2)C1 [Compound 63, (2-formyl-3-hydroxyphenyl)methyl N-{5-[(1S,3R)-3-[(isopropylcarbamoyl)oxy]cyclopentyl]-1H-pyrazol-3-yl}carbamate]	9.55	361	6320	1260
Cc1sc(-c2cccc(O)c2C=O)nc1C(=O)Nc1cc([C@H]2CC[C@@H](OC(=O)NC(C)C)C2)[nH]n1 [Compound 65, (1R,3S)-3-(3-(2-(2-formyl-3-hydroxyphenyl)-5-methylthiazole-4-carboxamido)-1H-pyrazol-5-yl)cyclopentyl isopropylcarbamate]	8.52	28.1	4630	318
CC(C)NC(=O)O[C@@H]1CC[C@H](c2cc(NC(=O)Cc3ncc(-c4cccc(O)c4C=O)s3)n[nH]2)C1 [Compound 66, (1R,3S)-3-(5-{2-[5-(2-formyl-3-hydroxyphenyl)-1,3-thiazol-2-yl]acetamido}-2H-pyrazol-3-yl)cyclopentyl N-isopropylcarbamate; trifluoroacetic acid]	8.87	390	779	1690
